Substitutions are numbered along the chain they refer to. Activity calls are given as the source filed them. The calls are words filed in the database; no cut-off is given here.
Legend:
[1] = test system: Tyrosine-protein phosphatase non-receptor type 7 (Homo sapiens), P35236 [UNDEFINED MUTATION]; test: Inhibition of allosterically sensitized mutant form of His6-tagged human wild-type HePTP catalytic domain at 1.92 uM using pNPP as substrate incubated for 90 mins by quenched phosphatase activity assay
Sequence of Tyrosine-protein phosphatase non-receptor type 7 (Homo sapiens), P35236 [UNDEFINED MUTATION] (P35236 whole entry, looked up, stated change not applied, the tested form may be a part): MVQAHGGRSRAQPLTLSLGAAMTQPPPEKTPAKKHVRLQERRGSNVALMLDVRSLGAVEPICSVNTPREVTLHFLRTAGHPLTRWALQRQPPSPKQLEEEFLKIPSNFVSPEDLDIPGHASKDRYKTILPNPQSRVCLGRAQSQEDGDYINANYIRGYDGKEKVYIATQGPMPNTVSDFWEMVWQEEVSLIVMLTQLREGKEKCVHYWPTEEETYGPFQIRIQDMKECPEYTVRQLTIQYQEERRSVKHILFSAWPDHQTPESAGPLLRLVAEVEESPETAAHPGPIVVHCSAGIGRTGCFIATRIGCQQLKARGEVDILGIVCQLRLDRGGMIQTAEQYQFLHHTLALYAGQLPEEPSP

[2] = biological target: T1, Tyrosine-protein phosphatase non-receptor type 11 (Homo sapiens) (UniProt Q06124); test: Inhibition of allosterically sensitized mutant form of His6-tagged human SHP2 containing SHP1 and […] SH2 domain at 500 nM at 500 nM using pNPP as substrate incubated for 90 mins by quenched phosphatase activity assay
T1 sequence (whole entry): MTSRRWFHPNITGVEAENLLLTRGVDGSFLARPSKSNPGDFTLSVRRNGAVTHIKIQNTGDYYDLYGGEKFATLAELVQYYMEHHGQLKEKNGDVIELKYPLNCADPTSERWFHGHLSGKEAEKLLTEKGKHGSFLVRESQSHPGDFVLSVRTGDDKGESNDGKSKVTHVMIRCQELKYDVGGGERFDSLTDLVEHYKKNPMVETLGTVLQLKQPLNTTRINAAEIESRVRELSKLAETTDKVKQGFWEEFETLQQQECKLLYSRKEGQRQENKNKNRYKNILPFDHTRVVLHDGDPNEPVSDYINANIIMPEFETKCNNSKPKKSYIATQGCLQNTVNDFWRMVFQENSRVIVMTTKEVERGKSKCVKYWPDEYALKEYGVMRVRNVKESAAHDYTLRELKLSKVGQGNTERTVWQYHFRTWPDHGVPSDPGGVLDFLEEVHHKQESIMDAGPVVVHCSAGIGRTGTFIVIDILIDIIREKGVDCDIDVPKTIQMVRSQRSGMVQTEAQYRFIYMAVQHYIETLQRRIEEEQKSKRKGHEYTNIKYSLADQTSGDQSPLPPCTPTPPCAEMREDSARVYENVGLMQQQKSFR

[3] = test system: T2, Tyrosine-protein phosphatase non-receptor type 7 (Homo sapiens), P35236 [P171C,V205C]; test: Inhibition of allosterically sensitized mutant form of His6-tagged human HePTP catalytic domain at 500 nM using pNPP as substrate incubated for 90 mins by quenched phosphatase activity assay
T2 sequence (whole entry): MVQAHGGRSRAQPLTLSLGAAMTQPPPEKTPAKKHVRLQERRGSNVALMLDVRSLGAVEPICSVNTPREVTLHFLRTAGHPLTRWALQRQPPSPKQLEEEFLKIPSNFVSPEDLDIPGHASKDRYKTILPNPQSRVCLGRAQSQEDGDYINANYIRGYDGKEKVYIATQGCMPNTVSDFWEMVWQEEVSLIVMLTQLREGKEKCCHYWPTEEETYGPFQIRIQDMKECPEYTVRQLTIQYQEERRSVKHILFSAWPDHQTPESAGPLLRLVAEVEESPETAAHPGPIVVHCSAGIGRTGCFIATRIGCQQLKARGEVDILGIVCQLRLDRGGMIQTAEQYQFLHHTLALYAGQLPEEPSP

[4] = biological target: Tyrosine-protein phosphatase non-receptor type 13 (Homo sapiens) (UniProt Q12923); test: Inhibition of allosterically sensitized mutant form of His6-tagged human FAP1 catalytic domain at 500 nM using pNPP as substrate incubated for 90 mins by quenched phosphatase activity assay
Sequence of Tyrosine-protein phosphatase non-receptor type 13 (Homo sapiens) (Q12923 whole entry, the tested form may be a part): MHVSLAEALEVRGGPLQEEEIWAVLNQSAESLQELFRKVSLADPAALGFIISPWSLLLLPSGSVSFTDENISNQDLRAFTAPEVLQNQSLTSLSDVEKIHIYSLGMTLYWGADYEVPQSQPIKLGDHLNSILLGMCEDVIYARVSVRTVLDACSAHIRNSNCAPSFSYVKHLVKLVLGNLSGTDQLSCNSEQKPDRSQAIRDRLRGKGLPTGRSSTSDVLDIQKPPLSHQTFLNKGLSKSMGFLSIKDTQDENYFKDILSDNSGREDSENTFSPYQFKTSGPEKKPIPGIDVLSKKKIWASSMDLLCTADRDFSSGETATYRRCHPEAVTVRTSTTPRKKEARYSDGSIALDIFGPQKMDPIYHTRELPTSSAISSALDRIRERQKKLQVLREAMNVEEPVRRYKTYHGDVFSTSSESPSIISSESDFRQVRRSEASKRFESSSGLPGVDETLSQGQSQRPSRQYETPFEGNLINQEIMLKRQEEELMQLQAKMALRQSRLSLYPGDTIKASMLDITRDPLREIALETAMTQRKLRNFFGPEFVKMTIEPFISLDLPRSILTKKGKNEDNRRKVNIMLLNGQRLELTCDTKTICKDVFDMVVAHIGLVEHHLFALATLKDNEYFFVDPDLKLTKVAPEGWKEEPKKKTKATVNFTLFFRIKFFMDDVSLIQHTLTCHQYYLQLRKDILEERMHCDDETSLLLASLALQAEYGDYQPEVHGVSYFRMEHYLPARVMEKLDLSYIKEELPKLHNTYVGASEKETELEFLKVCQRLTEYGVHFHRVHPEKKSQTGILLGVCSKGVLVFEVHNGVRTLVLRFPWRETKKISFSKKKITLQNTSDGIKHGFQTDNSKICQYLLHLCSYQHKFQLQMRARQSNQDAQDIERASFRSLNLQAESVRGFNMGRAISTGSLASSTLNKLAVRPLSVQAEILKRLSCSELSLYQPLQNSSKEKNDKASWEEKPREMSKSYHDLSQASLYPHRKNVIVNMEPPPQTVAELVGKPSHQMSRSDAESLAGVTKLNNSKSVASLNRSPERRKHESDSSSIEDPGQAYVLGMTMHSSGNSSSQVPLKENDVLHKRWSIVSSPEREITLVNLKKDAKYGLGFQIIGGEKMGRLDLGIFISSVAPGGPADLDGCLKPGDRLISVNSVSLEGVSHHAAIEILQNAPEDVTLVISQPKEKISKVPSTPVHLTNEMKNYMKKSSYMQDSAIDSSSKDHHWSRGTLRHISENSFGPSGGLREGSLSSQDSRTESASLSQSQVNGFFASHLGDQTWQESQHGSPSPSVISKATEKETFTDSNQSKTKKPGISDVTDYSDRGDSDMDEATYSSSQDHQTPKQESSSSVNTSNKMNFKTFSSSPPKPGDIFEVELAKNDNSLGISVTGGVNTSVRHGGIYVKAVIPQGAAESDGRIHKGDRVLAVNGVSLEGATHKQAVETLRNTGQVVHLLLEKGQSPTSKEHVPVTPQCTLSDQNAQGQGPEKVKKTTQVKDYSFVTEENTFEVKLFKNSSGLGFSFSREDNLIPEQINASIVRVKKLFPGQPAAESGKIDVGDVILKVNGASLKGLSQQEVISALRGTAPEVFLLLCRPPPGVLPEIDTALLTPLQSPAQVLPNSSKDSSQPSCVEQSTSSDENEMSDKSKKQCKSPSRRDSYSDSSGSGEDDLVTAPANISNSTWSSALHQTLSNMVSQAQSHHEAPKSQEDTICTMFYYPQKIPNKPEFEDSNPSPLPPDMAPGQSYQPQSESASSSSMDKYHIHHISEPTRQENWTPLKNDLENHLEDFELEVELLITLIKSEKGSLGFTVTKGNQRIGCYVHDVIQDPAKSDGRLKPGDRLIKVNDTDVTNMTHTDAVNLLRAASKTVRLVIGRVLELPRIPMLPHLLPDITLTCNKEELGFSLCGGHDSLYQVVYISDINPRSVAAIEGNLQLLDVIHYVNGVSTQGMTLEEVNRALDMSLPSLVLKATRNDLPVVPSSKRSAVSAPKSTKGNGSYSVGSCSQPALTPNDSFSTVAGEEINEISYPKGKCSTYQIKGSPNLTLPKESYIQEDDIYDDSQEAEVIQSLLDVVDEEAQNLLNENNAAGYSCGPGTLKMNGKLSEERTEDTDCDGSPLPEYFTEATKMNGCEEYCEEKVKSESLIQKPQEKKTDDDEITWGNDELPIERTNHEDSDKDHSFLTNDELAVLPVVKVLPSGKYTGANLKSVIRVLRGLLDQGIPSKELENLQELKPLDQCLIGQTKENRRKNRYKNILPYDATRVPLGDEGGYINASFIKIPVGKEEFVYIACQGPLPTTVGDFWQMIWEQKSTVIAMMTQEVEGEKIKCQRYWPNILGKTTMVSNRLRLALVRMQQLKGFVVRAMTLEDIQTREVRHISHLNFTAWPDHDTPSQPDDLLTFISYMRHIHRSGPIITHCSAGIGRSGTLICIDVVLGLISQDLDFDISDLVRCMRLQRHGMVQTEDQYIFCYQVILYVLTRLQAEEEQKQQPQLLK

[5] = biological target: T1, Tyrosine-protein phosphatase non-receptor type 11 (Homo sapiens); test: Inhibition of allosterically sensitized mutant form of His6-tagged human SHP2 catalytic domain at 500 nM at 500 nM using pNPP as substrate incubated for 90 mins by quenched phosphatase activity assay
[6] = species: Homo sapiens; test: Inhibition of His6-tagged human wild-type PTP catalytic domain at 500 nM using pNPP as substrate incubated for 90 mins by quenched phosphatase activity assay
[7] = biological target: Tyrosine-protein phosphatase non-receptor type 6 (Homo sapiens) (UniProt P29350); test: Inhibition of allosterically sensitized mutant form of His6-tagged human SHP1 catalytic domain at 500 nM using pNPP as substrate incubated for 90 mins by quenched phosphatase activity assay
Sequence of Tyrosine-protein phosphatase non-receptor type 6 (Homo sapiens) (P29350 whole entry, the tested form may be a part): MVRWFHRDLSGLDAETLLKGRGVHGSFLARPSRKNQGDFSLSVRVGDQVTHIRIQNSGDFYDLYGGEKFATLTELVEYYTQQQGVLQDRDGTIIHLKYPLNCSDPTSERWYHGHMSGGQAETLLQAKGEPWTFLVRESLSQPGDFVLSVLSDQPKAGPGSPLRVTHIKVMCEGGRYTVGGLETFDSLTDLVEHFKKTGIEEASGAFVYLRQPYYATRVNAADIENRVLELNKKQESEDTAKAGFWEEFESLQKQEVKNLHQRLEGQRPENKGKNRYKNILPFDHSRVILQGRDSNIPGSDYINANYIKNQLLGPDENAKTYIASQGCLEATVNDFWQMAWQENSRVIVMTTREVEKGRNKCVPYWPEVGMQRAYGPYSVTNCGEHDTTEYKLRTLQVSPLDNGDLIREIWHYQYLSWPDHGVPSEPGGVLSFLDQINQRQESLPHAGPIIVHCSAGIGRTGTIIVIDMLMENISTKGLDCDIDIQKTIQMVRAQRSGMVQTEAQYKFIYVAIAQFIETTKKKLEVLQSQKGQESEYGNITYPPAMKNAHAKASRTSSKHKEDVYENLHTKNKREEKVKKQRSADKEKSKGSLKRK

[8] = test system: T3, Tyrosine-protein phosphatase non-receptor type 1 (Homo sapiens), P18031 [P87C,A122C]; test: Inhibition of allosterically sensitized His6-tagged human PTP1B catalytic domain P87C/A122C mutant at 250 nM using pNPP as substrate incubated for 90 mins by quenched phosphatase activity assay
T3 sequence (whole entry): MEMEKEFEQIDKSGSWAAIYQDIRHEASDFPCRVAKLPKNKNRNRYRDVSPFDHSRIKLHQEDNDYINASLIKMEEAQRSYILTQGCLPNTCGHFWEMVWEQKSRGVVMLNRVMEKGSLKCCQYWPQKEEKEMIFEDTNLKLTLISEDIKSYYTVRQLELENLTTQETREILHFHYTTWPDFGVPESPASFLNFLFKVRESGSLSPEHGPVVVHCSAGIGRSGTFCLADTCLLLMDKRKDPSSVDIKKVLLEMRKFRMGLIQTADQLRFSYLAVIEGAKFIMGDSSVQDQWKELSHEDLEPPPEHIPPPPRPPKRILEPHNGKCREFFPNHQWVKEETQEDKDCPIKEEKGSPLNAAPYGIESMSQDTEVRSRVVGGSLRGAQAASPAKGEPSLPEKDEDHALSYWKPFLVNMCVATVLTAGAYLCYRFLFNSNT

[9] = biological target: T4, Tyrosine-protein phosphatase non-receptor type 7 (Homo sapiens) (UniProt P35236); test: Inhibition of His6-tagged human wild-type HePTP catalytic domain at 1 uM using pNPP as substrate incubated for 90 mins by quenched phosphatase activity assay
T4 sequence (whole entry): T2 sequence (whole entry) with C171P, C205V

[10] = test system: T2, Tyrosine-protein phosphatase non-receptor type 7 (Homo sapiens), P35236 [P171C,V205C]; test: Inhibition of allosterically sensitized mutant form of His6-tagged human HePTP catalytic domain at 1 uM using pNPP as substrate measured up to 10 mins by quenched phosphatase activity assay
[11] = test system: T2, Tyrosine-protein phosphatase non-receptor type 7 (Homo sapiens), P35236 [P171C,V205C]; test: Inhibition of allosterically sensitized mutant form of His6-tagged human HePTP catalytic domain using pNPP as substrate incubated for 90 mins by quenched phosphatase activity assay

In the case of CCCCNC(=O)c1ccc(-c2c3ccc(=O)c([As]4SCCS4)c-3oc3c([As]4SCCS4)c(O)ccc23)c(C(=O)O)c1, the inhibition [1] is reported as “Active”.
O=C(O)c1ccc(-c2c3ccc(=O)c([As]4SCCS4)c-3oc3c([As]4SCCS4)c(O)ccc23)c(C(=O)O)c1 was tested, and the inhibition [1] was “Active”.
For O=C(O)c1ccccc1-c1c2cc(Cl)c(=O)c([As]3SCCS3)c-2oc2c([As]3SCCS3)c(O)c(Cl)cc12, the inhibition [1] was “Active”.
For CC1(C)C(/C=C/C=C/C=C2/N(CCCCS(=O)(=O)O)c3ccc([As]4SCCS4)cc3C2(C)C)=[N+](CCCCS(=O)(=O)O)c2ccc([As]3SCCS3)cc21, the inhibition [2] was “inactive”, the inhibition [3] was “Active” and the inhibition [4] was “Active”. The inhibition [5] was “inactive”, the inhibition [6] was “Active” and the inhibition [7] was “Active”. For the same molecule, the inhibition [8] was “Active”.
In the case of O=C(O)c1ccccc1-c1c2cc(F)c(=O)c([As]3SCCS3)c-2oc2c([As]3SCCS3)c(O)c(F)cc12, the inhibition [1] is reported as “Active”.
CCc1cc2c(-c3ccccc3C(=O)O)c3cc(CC)c(=O)c([As]4SCCS4)c-3oc2c([As]2SCCS2)c1O was tested, and the inhibition [1] was “Active”.
O=C(O)c1c(F)c(F)c(F)c(F)c1-c1c2ccc(=O)c([As]3SCCS3)c-2oc2c([As]3SCCS3)c(O)ccc12 was tested, and the inhibition [1] was “Active”.
In the case of O=c1ccc2nc3ccc(O)c([As]4SCCS4)c3oc-2c1[As]1SCCS1, the inhibition [9] is reported as “inactive”, the inhibition [10] is reported as 50% and the inhibition [3] is reported as “Active”. For the same molecule, the inhibition [11] was “Dose-dependent effect”, the inhibition [4] was “Active” and the inhibition [6] was “Active”. For the same molecule, the inhibition [7] was “Active” and the inhibition [8] was “Active”.

Source: ChEMBL document CHEMBL4118135, “Optimized allosteric inhibition of engineered protein tyrosine phosphatases with an expanded palette of biarsenical small molecules” (Bioorg Med Chem, 2018)
